Reference: patent US20240246942A1, “KINASE INHIBITORS FOR THE TREATMENT OF NEURODEGENERATIVE DISEASES” (priority 2020, published 2024)

Legend:
Experiment in all cases: biochemical
[1] = target: T1, panel of 374 wild-type kinases (Homo sapiens, UniProt Q9P1W9); conditions: read-out: % Enzyme Activity (relative to DMSO controls), kinase PIM2
T1 construct: purchased Reaction Biology Corporation

[2] = target: T2, panel of 374 wild-type kinases (Homo sapiens, UniProt Q8NE63); conditions: read-out: % Enzyme Activity (relative to DMSO controls), HIPK4
T2 construct: purchased Reaction Biology Corporation
T2 sequence (Q8NE63 1-616): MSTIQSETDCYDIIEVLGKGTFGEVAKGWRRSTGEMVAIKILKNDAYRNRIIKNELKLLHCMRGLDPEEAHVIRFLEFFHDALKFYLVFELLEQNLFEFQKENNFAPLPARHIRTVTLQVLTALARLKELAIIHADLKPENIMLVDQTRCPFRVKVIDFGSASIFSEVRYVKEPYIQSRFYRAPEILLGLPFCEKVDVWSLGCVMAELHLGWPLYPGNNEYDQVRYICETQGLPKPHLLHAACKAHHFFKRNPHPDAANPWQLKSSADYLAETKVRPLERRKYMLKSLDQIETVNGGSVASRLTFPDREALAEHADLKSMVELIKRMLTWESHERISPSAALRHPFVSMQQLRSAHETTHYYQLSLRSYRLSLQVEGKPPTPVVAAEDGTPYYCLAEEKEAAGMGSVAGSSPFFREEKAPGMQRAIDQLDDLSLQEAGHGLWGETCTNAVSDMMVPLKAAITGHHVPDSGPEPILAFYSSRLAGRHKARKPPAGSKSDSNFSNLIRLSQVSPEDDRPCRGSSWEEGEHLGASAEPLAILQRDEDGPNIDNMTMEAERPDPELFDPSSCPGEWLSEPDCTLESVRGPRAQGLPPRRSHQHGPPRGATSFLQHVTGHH

[3] = target: T3, panel of 374 wild-type kinases (Homo sapiens, UniProt P36894); conditions: read-out: % Enzyme Activity (relative to DMSO controls), ALK3/BMPR1A
T3 construct: purchased Reaction Biology Corporation

[4] = target: T4, panel of 374 wild-type kinases (Homo sapiens, UniProt P25098); conditions: read-out: % Enzyme Activity (relative to DMSO controls), GRK2
T4 construct: purchased Reaction Biology Corporation
T4 sequence (P25098 1-689): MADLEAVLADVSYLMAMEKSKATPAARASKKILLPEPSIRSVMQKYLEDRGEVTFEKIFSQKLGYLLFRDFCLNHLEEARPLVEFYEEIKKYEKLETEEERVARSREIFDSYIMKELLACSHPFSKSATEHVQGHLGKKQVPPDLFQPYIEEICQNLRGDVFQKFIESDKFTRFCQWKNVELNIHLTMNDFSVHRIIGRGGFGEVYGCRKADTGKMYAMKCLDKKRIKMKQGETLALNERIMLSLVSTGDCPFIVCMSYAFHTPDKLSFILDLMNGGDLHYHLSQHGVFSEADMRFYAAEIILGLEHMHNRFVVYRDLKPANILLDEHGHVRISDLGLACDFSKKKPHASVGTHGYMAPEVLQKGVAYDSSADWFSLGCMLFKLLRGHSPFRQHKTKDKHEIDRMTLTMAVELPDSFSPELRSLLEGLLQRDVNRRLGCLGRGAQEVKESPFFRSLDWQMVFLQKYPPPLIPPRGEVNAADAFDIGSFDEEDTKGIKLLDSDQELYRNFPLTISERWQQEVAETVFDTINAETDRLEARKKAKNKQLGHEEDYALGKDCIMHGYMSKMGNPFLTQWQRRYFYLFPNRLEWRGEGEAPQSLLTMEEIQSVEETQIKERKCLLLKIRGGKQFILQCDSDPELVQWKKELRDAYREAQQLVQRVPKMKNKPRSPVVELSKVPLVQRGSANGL

[5] = target: T5, panel of 374 wild-type kinases (Homo sapiens, UniProt Q96GX5); conditions: MASTL, read-out: % Enzyme Activity (relative to DMSO controls)
T5 construct: purchased Reaction Biology Corporation
T5 sequence (Q96GX5 1-879): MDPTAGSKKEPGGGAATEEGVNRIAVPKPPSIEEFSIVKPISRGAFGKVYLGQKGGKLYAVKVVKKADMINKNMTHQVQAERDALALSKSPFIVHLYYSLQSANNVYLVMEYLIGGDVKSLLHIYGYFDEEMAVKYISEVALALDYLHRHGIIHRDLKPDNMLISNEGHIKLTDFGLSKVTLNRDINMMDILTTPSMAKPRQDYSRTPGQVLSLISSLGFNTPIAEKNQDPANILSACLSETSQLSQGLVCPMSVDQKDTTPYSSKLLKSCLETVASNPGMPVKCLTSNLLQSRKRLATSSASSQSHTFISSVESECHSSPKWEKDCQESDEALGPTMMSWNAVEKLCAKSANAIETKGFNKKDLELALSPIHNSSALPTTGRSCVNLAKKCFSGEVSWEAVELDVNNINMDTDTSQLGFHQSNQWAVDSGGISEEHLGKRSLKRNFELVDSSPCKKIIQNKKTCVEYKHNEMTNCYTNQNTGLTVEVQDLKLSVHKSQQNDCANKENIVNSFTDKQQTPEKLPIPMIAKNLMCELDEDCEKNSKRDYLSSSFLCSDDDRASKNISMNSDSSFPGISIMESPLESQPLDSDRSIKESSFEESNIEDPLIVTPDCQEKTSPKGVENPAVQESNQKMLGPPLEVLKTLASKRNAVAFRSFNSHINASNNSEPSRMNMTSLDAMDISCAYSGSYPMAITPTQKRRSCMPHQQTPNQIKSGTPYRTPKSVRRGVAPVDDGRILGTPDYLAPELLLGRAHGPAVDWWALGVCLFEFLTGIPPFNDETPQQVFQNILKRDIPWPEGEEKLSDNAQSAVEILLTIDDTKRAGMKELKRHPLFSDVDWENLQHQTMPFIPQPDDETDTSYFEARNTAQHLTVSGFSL

[6] = target: T6, panel of 374 wild-type kinases (Homo sapiens, UniProt Q9NYL2); conditions: read-out: % Enzyme Activity (relative to DMSO controls), kinase ZAK/MLTK
T6 construct: purchased Reaction Biology Corporation
T6 sequence (Q9NYL2 whole entry): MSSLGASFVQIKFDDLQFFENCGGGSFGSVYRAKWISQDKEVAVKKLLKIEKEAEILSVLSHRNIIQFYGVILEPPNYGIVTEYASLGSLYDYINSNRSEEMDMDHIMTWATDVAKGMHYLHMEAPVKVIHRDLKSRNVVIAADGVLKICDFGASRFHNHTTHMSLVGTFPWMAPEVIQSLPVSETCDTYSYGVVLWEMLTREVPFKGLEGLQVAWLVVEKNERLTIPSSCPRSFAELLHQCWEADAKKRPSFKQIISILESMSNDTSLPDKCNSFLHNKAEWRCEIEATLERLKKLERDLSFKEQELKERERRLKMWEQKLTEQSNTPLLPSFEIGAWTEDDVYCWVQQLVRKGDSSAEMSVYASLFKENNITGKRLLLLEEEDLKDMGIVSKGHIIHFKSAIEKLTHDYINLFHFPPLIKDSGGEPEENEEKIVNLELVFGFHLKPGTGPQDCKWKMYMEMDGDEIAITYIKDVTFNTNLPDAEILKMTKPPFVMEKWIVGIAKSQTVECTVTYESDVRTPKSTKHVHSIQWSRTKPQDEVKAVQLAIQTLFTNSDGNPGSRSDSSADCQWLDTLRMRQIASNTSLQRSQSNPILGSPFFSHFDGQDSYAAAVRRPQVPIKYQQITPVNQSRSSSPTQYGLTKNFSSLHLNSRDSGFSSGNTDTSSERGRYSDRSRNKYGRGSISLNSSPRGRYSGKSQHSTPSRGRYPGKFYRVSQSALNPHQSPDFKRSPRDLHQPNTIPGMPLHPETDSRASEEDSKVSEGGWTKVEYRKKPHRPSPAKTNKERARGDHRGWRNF

T3 sequence (P36894 24-532): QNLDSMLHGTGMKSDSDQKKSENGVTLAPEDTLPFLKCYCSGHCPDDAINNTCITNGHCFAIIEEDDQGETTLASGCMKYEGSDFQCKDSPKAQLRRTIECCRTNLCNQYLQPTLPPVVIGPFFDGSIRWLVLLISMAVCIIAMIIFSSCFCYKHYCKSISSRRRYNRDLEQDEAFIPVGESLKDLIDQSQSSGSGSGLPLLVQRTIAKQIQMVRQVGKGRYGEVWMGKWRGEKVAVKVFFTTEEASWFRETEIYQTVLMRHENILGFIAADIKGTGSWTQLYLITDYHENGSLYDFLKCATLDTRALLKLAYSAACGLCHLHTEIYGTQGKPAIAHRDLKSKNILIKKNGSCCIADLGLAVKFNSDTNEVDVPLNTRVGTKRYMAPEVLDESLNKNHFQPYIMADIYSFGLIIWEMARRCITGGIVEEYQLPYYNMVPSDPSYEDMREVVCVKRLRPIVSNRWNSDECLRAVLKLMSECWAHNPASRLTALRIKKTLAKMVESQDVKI
T1 sequence (Q9P1W9 whole entry): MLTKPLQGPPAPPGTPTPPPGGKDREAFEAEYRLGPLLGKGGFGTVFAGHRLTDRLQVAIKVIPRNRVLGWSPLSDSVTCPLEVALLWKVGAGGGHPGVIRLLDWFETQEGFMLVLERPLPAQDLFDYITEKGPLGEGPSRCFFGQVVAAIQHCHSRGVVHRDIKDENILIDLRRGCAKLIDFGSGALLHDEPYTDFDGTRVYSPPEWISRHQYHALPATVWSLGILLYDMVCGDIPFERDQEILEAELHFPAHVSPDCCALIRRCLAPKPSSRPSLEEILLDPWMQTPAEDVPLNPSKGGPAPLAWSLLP

Row | Compound | remaining activity at 5 µM [1] | remaining activity at 5 µM [2] | remaining activity at 5 µM [3] | remaining activity at 5 µM [4] | remaining activity at 5 µM [5] | remaining activity at 5 µM [6] | remaining activity at 10 µM ([1]; 10 uM) | remaining activity at 10 µM ([2]; 10 uM) | remaining activity at 10 µM ([3]; 10 uM) | remaining activity at 10 µM ([4]; 10 uM) | remaining activity at 10 µM ([5]; 10 uM) | remaining activity at 10 µM ([6]; 10 uM)
1 | O=C(Nc1cnn(-c2csc(C(=O)NC3COC3)c2)c1)Nc1ccccc1Cl [Compound 17, 4-(4-(3-(2-chlorophenyl)ureido)-1H-pyrazol-1-yl)-N-(oxetan-3-yl)thiophene-2-carboxamide] | 96.4% | 100% | 105% | 96.1% | 96.7% | 101% |  |  |  |  |  | 
2 | Cc1sc(C(=O)NC2COC2)cc1-n1cc(NC(=O)Nc2c(F)cccc2Cl)cn1 [Compound 27, 4-(4-(3-(2-chloro-6-fluorophenyl)ureido)-1H-pyrazol-1-yl)-5-methyl-N-(oxetan-3-yl)thiophene-2-carboxamide] |  |  |  |  |  |  | 96.5% | 98.4% | 92.5% | 106% | 110% | 89.9%
3 | O=C(Nc1cnn(-c2csc(C(=O)NC3COC3)c2)c1)Nc1c(F)cccc1Cl [Compound 25, 4-(4-(3-(2-chloro-6-fluorophenyl)ureido)-1H-pyrazol-1-yl)-N-(oxetan-3-yl)thiophene-2-carboxamide] | 129% | 111% | 103% | 106% | 93.7% | 90.4% |  |  |  |  |  | 
